Source: US9790201B2, “Piperidine and azepine derivatives as prokineticin receptor modulators” (TAKEDA PHARMACEUTICAL COMPANY LIMITED, priority 2013, dated 2017)
Where a name gives a salt, the structure may show the parent alone.

Molecular target: human PKR1 receptors (Homo sapiens (Human), UniProt Q8TCW9)
Test: PKR1 antagonist assay: block of PK1-mediated intracellular calcium release (FLIPR Tetra)
Assay type: cell-based
Settings: RBL2H3 cells expressing human PKR1; stimulation with PK1 at EC80; calcium fluorescence
Description: Prokineticin receptor 1 (PKR1) antagonists may be functionally assessed by measurement of change in intracellular calcium levels induced by Gq mediated increase in inositol triphosphate (IP3) levels. The ability of a compound to block the intracellular release of calcium mediated by PK1 in RBL2H3 cells expressing human PKR1 receptors is determined as a measure of the compound's antagonist activity in vitro.
Approximately 10,000 cells per assay well are seeded in normal culture medium in a 384 well plate (Corning). Twenty-four hours after seeding, the cells are loaded with a calcium sensitive fluorescent dye by replacing the culture medium with assay buffer (1× Hanks buffered saline, 25 mM HEPES, 0.1% w/v fatty acid free BSA (bovine serum albumin), pH 7.4) containing 1 mM probenecid and 1× Calcium 5 Reagent (Molecular Devices). Cells are incubated at 37° C. for 1 hour to allow for dye uptake.
To test for antagonist activity, test compounds at a final concentration range between 0.32 nM-10 μM (diluted in assay buffer) are added to the assay wells and allowed to incubate for 10 minutes prior to stimulation with PK1. After incubation with test compounds the assay plate is placed in a FLIPR Tetra (Molecular Devices) and PK1 (diluted in assay buffer) is added at the determined EC80 concentration (final). Ligand-dependent changes in intracellular calcium levels are determined by measuring changes in fluorescence of the dye at […] following excitation at 485 nm.

Sequence of human PKR1 receptors (Q8TCW9 whole entry): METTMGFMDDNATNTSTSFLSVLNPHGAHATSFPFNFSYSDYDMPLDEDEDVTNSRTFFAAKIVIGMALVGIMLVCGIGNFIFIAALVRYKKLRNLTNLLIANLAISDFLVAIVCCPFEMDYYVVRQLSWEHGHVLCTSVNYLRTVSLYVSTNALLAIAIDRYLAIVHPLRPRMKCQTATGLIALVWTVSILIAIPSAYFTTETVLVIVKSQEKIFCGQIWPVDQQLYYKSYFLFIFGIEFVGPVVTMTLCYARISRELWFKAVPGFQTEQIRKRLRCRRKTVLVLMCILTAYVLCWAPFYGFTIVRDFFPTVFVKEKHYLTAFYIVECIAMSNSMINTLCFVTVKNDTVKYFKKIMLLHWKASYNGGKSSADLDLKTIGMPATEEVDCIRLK

Structure (SMILES) | IC50 [nM]
CN(C)c1cc(C(=O)N2CCCC(O)(c3ccc(F)cc3)C2)ccn1 (stereo not shown) [Example 117, 1-{[2-(Dimethylamino)pyridin-4-yl]carbonyl}-3-(4-fluorophenyl)piperidin-3-ol] | 3940
CCc1cc(C(=O)N2CCCC(c3ccc(C)cc3)C2)ccn1 (stereo not shown) [Example 20, 2-Ethyl-4-{[3-(4-methylphenyl)piperidin-1-yl]carbonyl}pyridine] | 1210
COc1ccc(C2CCCN(C(=O)c3ccnc(N(C)C)c3)C2)cc1 (stereo not shown) [Example 47, 4-{[3-(4-Methoxyphenyl)piperidin-1-yl]carbonyl}-N,N-dimethylpyridin-2-amine] | 460
Cc1ccc(C2CCCN(C(=O)c3ccnc(N4CCCC4)c3)C2)cc1 (stereo not shown) [Example 35, 4-{[3-(4-Methylphenyl)piperidin-1-yl]carbonyl}-2-(pyrrolidin-1-yl)pyridine] | 8820
CNc1cc(C(=O)N2CCCC(c3ccc(C(F)(F)F)cc3)C2)ccn1 (stereo not shown) [Example 53, N-Methyl-4-({3-[4-(trifluoromethyl)phenyl]piperidin-1-yl}carbonyl)pyridin-2-amine] | 2920
CCOc1cc(C(=O)N2CCCC(c3ccc(Cl)cc3)C2)ccn1 (stereo not shown) [Example 42, 4-{[3-(4-Chlorophenyl)piperidin-1-yl]carbonyl}-2-ethoxypyridine] | 8350
Cc1ccc(C2CCCN(C(=O)c3ccnc(N(C)C4CC4)c3)C2)cc1 (stereo not shown) [Example 43, N-Cyclopropyl-N-methyl-4-{[3-(4-methylphenyl)piperidin-1-yl]carbonyl}pyridin-2-amine] | 7050
Cn1cc(C(=O)N2CCCC(c3ccc(Cl)cc3)C2)cn1 (stereo not shown) [Example 89, 3-(4-Chlorophenyl)-1-[(1-methyl-1H-pyrazol-4-yl)carbonyl]piperidine] | 1280
COc1ccc(C2CCCN(C(=O)c3cn(C)nc3C)C2)c(C)c1 (stereo not shown) [Example 101, 1-[(1,3-Dimethyl-1H-pyrazol-4-yl)carbonyl]-3-(4-methoxy-2-methylphenyl)piperidine] | 1030
O=C(c1ccnc(C2CC2)c1)N1CCCC(c2ccc(Cl)cc2)C1 (stereo not shown) [Example 3, 4-{[3-(4-Chlorophenyl)piperidin-1-yl]carbonyl}-2-cyclopropylpyridine] | 1740
CN(C)c1cc(C(=O)N2CCCC(c3ccccc3)C2)ccn1 (stereo not shown) [Example 15, N,N-Dimethyl-4-[(3-phenylpiperidin-1-yl)carbonyl]pyridin-2-amine] | 1140
Cc1ccc(C2CCCN(C(=O)c3ccnc(N(C)C(C)C)c3)C2)cc1 (stereo not shown) [Example 40, N-Methyl-4-{[3-(4-methylphenyl)piperidin-1-yl]carbonyl}-N-(propan-2-yl)pyridin-2-amine] | 7030
CN(C)c1cc(C(=O)N2C=C(c3ccc(Cl)cc3)CCC2)ccn1 [Example 104, 4-{[5-(4-Chlorophenyl)-1,2,3,4-tetrahydropyridin-1-yl]carbonyl}-N,N-dimethylpyridin-2-amine] | 420
CC(C)Nc1cc(C(=O)N2CCCC(c3ccc(Cl)cc3)C2)ccn1 (stereo not shown) [Example 8, 4-{[3-(4-Chlorophenyl)piperidin-1-yl]carbonyl}-N-(propan-2-yl)pyridin-2-amine] | 3270
Cc1nn(C)cc1C(=O)N1CCCC(c2ccc(Cl)cc2)C1 (stereo not shown) [Example 88, 3-(4-Chlorophenyl)-1-[(1,3-dimethyl-1H-pyrazol-4-yl)carbonyl]piperidine] | 1820
CNc1cc(C(=O)N2CCCC(c3ccc(OC)cc3)C2)ccn1 (stereo not shown) [Example 55, 4-{[3-(4-Methoxyphenyl)piperidin-1-yl]carbonyl}-N-methylpyridin-2-amine hemi formate] | 350
Cc1ccc(C2CCCN(C(=O)c3ccnc(N4CC(O)C4)c3)C2)cc1 (stereo not shown) [Example 41, 1-(4-{[3-(4-Methylphenyl)piperidin-1-yl]carbonyl}pyridin-2-yl)azetidin-3-ol] | 8460

Further lines, results first:

IC50 [nM] | Structure (SMILES)
1140 | Cc1cc(C(=O)N2CCCC(c3ccc(Cl)cc3C)C2)cnn1 (stereo not shown) [Example 85, 5-{[3-(4-Chloro-2-methylphenyl)piperidin-1-yl]carbonyl}-3-methylpyridazine]
50 | CNc1cc(C(=O)N2CCCC(c3ccc(OC)cc3C(F)(F)F)C2)ccn1 (stereo not shown) [Example 64, 4-({3-[4-Methoxy-2-(trifluoromethyl)phenyl]piperidin-1-yl}carbonyl)-N-methylpyridin-2-amine formate]
540 | Cn1cc(C(=O)N2CCCC(c3ccc(Cl)cc3C(F)(F)F)C2)c(N)n1 (stereo not shown) [Example 100, 4-({3-[4-Chloro-2-(trifluoromethyl)phenyl]piperidin-1-yl}carbonyl)-1-methyl-1H-pyrazol-3-amine]
210 | COc1ccc(C2CCCN(C(=O)c3cnnc(N(C)C)c3)C2)c(C(F)(F)F)c1 (stereo not shown) [Example 82, 5-({3-[4-Methoxy-2-(trifluoromethyl)phenyl]piperidin-1-yl}carbonyl)-N,N-dimethylpyridazin-3-amine]
160 | COc1ccc(C2CCCN(C(=O)c3cnnc(N(C)C)c3)C2)c(C)c1 (stereo not shown) [Example 80, 5-{[3-(4-Methoxy-2-methylphenyl)piperidin-1-yl]carbonyl}-N,N-dimethylpyridazin-3-amine]
30 | Cc1cc(Cl)ccc1C1CCCN(C(=O)c2ccnc(N(C)C)c2)C1 (stereo not shown) [Example 24, 4-{[3-(4-Chloro-2-methylphenyl)piperidin-1-yl]carbonyl}-N,N-dimethylpyridin-2-amine]
840 | CN(C)c1cc(C(=O)N2CCC[C@@H](c3ccc(Cl)cc3)C2)ccn1 [Example 17, 4-{[(3S)-3-(4-Chlorophenyl)piperidin-1-yl]carbonyl}-N,N-dimethylpyridin-2-amine]
930 | CNc1cc(C(=O)N2CCCCC(c3ccc(Cl)cc3)C2)cnn1 (stereo not shown) [Example 113, 5-{[3-(4-Chlorophenyl)azepan-1-yl]carbonyl}-N-methylpyridazin-3-amine]
270 | CN(C)c1cc(C(=O)N2CCCC(c3ccc(Cl)cc3)C2)ccn1 (stereo not shown) [Example 16, 4-{[3-(4-Chlorophenyl)piperidin-1-yl]carbonyl}-N,N-dimethylpyridin-2-amine]
490 | Cc1nn(C)cc1C(=O)N1CCCC(c2ccc(Cl)cc2C(F)(F)F)C1 (stereo not shown) [Example 103, 3-[4-Chloro-2-(trifluoromethyl)phenyl]-1-[(1,3-dimethyl-1H-pyrazol-4-yl)carbonyl]piperidine]
1820 | CN(C)c1cc(C(=O)N2CCCC(c3ccccc3F)C2)ccn1 (stereo not shown) [Example 1, 4-{[3-(2-Fluorophenyl)piperidin-1-yl]carbonyl}-N,N-dimethylpyridin-2-amine]
190 | CN(C)c1cc(C(=O)N2CCCC(c3ccc(Cl)cc3Cl)C2)ccn1 (stereo not shown) [Example 2, 4-{[3-(2,4-Dichlorophenyl)piperidin-1-yl]carbonyl}-N,N-dimethylpyridin-2-amine]
4400 | CN(C)c1cc(C(=O)N2CCCC(c3ccc(C(F)(F)F)cc3)C2)ccn1 (stereo not shown) [Example 44, N,N-Dimethyl-4-({3-[4-(trifluoromethyl)phenyl]piperidin-1-yl}carbonyl)pyridin-2-amine formate]
2260 | CN(C)c1cc(C(=O)N2CCCC(c3ccccc3C#N)C2)ccn1 (stereo not shown) [Example 67, 2-(1-{[2-(Dimethylamino)pyridin-4-yl]carbonyl}piperidin-3-yl)benzonitrile]
7790 | CN(C)c1cc(C(=O)N2CCCC(c3ccccc3Cl)C2)ccn1 (stereo not shown) [Example 46, 4-{[3-(2-Chlorophenyl)piperidin-1-yl]carbonyl}-N,N-dimethylpyridin-2-amine]
> 10000 | Cn1cc(C(=O)N2CCCC(c3ccc(Cl)cc3C(F)(F)F)C2)c(N)n1 (single isomer, unassigned) [Example 118, 4-({3-[4-Chloro-2-(trifluoromethyl)phenyl]piperidin-1-yl}carbonyl)-1-methyl-1H-pyrazol-3-amine]
70 | CCOc1cc(Cl)ccc1C1CCCN(C(=O)c2ccnc(NC)c2)C1 (stereo not shown) [Example 65, 4-{[3-(4-Chloro-2-ethoxyphenyl)piperidin-1-yl]carbonyl}-N-methylpyridin-2-amine]
180 | Cc1cc(Cl)ccc1C1CCCN(C(=O)c2cnn(C(C)C)c2)C1 (stereo not shown) [Example 93, 3-(4-Chloro-2-methylphenyl)-1-{[1-(propan-2-yl)-1H-pyrazol-4-yl]carbonyl}piperidine]
410 | COc1ccccc1C1CCCN(C(=O)c2ccnc(N(C)C)c2)C1 (stereo not shown) [Example 48, 4-{[3-(2-Methoxyphenyl)piperidin-1-yl]carbonyl}-N,N-dimethylpyridin-2-amine]
820 | CCc1cc(C(=O)N2CCCC(c3ccccc3C(F)(F)F)C2)ccn1 (stereo not shown) [Example 58, 2-Ethyl-4-({3-[2-(trifluoromethyl)phenyl]piperidin-1-yl}carbonyl)pyridine]
70 | CCc1cc(C(=O)N2CCCC(c3ccc(Cl)cc3C)C2)ccn1 (stereo not shown) [Example 4, 4-{[3-(4-Chloro-2-methylphenyl)piperidin-1-yl]carbonyl}-2-ethylpyridine]
110 | CN(C)c1cc(C(=O)N2CCCC(c3ccc(Cl)cc3C(F)(F)F)C2)cnn1 (stereo not shown) [Example 75, 5-({3-[4-Chloro-2-(trifluoromethyl)phenyl]piperidin-1-yl}carbonyl)-N,N-dimethylpyridazin-3-amine]
100 | COc1ccc(C2CCCN(C(=O)c3ccnc(N(C)C)c3)C2)c(C(F)(F)F)c1 (stereo not shown) [Example 62, 4-({3-[4-Methoxy-2-(trifluoromethyl)phenyl]piperidin-1-yl}carbonyl)-N,N-dimethylpyridin-2-amine]
